# Experimental data published in ChEMBL document CHEMBL1201862, “PubChem BioAssay data set” (2004).
#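 Protocol summary: plate cells (96-well), add compound at 5 concentrations, incubate 48 h, interpolate endpoints linearly. GI50 = concentration required for 50% inhibition of growth.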 Calls of active or inactive are those of the source. Cut-off read from the data, not from the text of the source: active = GI50 up to about 1.1 µM and inactive = higher.
# Tests used:
# Test in all cases: growth of human tumour cells (NCI), 48 h
# [1] = tested on: EKVX
# [2] = tested on: RPMI-8226
# [3] = tested on: NCI-H522
# [4] = tested on: RXF 393
# [5] = tested on: COLO 205
# [6] = tested on: SNB-78
# [7] = tested on: OVCAR-3
# [8] = tested on: M19-MEL
# [9] = tested on: SK-MEL-28
# [10] = tested on: SF-539
# [11] = tested on: SF-268
# [12] = tested on: CAKI-1
# [13] = tested on: NCI-H23
# [14] = tested on: UACC-257
# [15] = tested on: 786-0
# [16] = tested on: SK-MEL-2
# [17] = tested on: HL-60
# [18] = tested on: MDA-MB-435
# [19] = tested on: PC-3
Compound,GI50 [1],GI50 [2],GI50 [3],GI50 [4],GI50 [5],GI50 [6],GI50 [7],GI50 [8],GI50 [9],GI50 [10],GI50 [11],GI50 [12],GI50 [13],GI50 [14],GI50 [15],GI50 [16],GI50 [17],GI50 [18],GI50 [19]
Cc1cc(C)nc(NS(=O)(=O)c2ccc(NC(=O)c3cccc4c(N)c5ccccc5nc34)cc2)n1,> 100 µM (inactive),34.2 µM (inactive),> 100 µM (inactive),> 100 µM (inactive),> 100 µM (inactive),> 100 µM (inactive),> 100 µM (inactive),> 100 µM (inactive),> 100 µM (inactive),31.6 µM (inactive),> 100 µM (inactive),> 100 µM (inactive),> 100 µM (inactive),> 100 µM (inactive),> 100 µM (inactive),> 100 µM (inactive),,,
O=C(Nc1ccc(Cl)cc1Cl)C(=O)C(C(=O)c1ccc2ccccc2c1)C1OC(=O)c2ccccc21 (centres undefined),15.9 µM (inactive),4.06 µM (inactive),> 10 µM (inactive),2.16 µM (inactive),9.46 µM (inactive),3.33 µM (inactive),10.7 µM (inactive),12.6 µM (inactive),3.48 µM (inactive),2.68 µM (inactive),> 10 µM (inactive),13.5 µM (inactive),2.92 µM (inactive),12.6 µM (inactive),5.97 µM (inactive),13.7 µM (inactive),2.96 µM (inactive),,
COC1CC(C)C(OC)C2=CC(=O)C=C(NC(=O)/C(C)=C/C=C\C(C)C(OC(N)=O)/C(C)=C\C(C)C1OC)C2=O (centres undefined),11 µM (inactive),0.313 µM (active),0.0908 µM (active),0.337 µM (active),0.0414 µM (active),1.71 µM (inactive),0.313 µM (active),0.441 µM (active),0.166 µM (active),0.355 µM (active),1.31 µM (inactive),2.52 µM (inactive),0.447 µM (active),0.261 µM (active),0.902 µM (active),0.525 µM (active),0.182 µM (active),0.0721 µM (active),11.5 µM (inactive)
Cn1cccc(C(=O)c2ccccc2)c1=O,> 100 µM (inactive),> 100 µM (inactive),> 100 µM (inactive),> 100 µM (inactive),> 100 µM (inactive),> 100 µM (inactive),> 100 µM (inactive),> 100 µM (inactive),> 100 µM (inactive),> 100 µM (inactive),> 100 µM (inactive),> 100 µM (inactive),> 100 µM (inactive),> 100 µM (inactive),> 100 µM (inactive),> 100 µM (inactive),> 100 µM (inactive),,
Cc1c(/C=N/NC(=O)c2ccc(Cl)cc2)c(=O)n(-c2ccccc2)n1C,> 100 µM (inactive),> 100 µM (inactive),> 100 µM (inactive),> 100 µM (inactive),> 100 µM (inactive),> 100 µM (inactive),> 100 µM (inactive),> 100 µM (inactive),> 100 µM (inactive),> 100 µM (inactive),> 100 µM (inactive),,> 100 µM (inactive),> 100 µM (inactive),> 100 µM (inactive),> 100 µM (inactive),> 100 µM (inactive),,
NCCOc1ccc(/C(=C(/Cl)c2ccccc2)c2ccccc2)cc1,15.1 µM (inactive),3.17 µM (inactive),12.4 µM (inactive),4.03 µM (inactive),1.89 µM (inactive),10 µM (inactive),12.4 µM (inactive),10.7 µM (inactive),5.66 µM (inactive),15.3 µM (inactive),13.2 µM (inactive),8.34 µM (inactive),16 µM (inactive),10.8 µM (inactive),7.94 µM (inactive),14.4 µM (inactive),3.74 µM (inactive),,
O=C1Cc2ccccc2CCc2ccsc21,> 100 µM (inactive),> 100 µM (inactive),> 100 µM (inactive),> 100 µM (inactive),> 100 µM (inactive),> 100 µM (inactive),> 100 µM (inactive),> 100 µM (inactive),> 100 µM (inactive),> 100 µM (inactive),> 100 µM (inactive),> 100 µM (inactive),> 100 µM (inactive),> 100 µM (inactive),> 100 µM (inactive),> 100 µM (inactive),92.3 µM (inactive),,
Clc1ccccc1C(n1cc(Br)cn1)n1cc(Br)cn1,,13.6 µM (inactive),71.9 µM (inactive),16.7 µM (inactive),,> 100 µM (inactive),> 10 µM (inactive),14.4 µM (inactive),40.7 µM (inactive),> 10 µM (inactive),> 10 µM (inactive),19 µM (inactive),23.1 µM (inactive),14.7 µM (inactive),> 10 µM (inactive),18.2 µM (inactive),14.7 µM (inactive),,
